pEC50: −log10 of the molar value.
What was measured:
MV-4-11 cells (FLT3-ITD) = test: CellTiter-Glo cell viability (single agent and combination); type: cell-based; settings: MV-4-11, MPC-0767 1 μM, 72 hours
Protocol: Three cell lines which harbor FLT3-ITD were used for the drug combination studies (MV-4-11, MOLM-13, and MOLM-14).
Cells were treated with the drugs (single agent or combination) for 72 hours. Drug combination activity was determined by first measuring cell viability with CellTiter-Glo®, followed by the calculation of the EC50 corresponding to single agent activity, using the R DRC package (R Core Team, 2017). The combination index (CI) values were computed using the Chou-Talalay method (Chou T, Cancer Research., 2010 70(2): 440-6.), based on the viability of each drug alone and in combination, across all concentrations tested. In brief, CI was defined as: […]
Loss of function mutations of KDM6A are observed in FLT3-ITD AML (Garg et al., 2015 Blood 126 (22):2491-501). […] To therapeutically exploit this finding, we hypothesized that inhibiting EZH2, the histone H3K27 methyltransferase that functionally opposes KDM6A, would enhance sensitivity to MPC-0767. To test this hypothesis, a FLT3-ITD cell line (MV-4-11) was used and treated with either of the two clinical stage EZH2 inhibitors, EPZ-6438 and CPI-1205, at 8 different concentrations for 4 days. Following this time, cells were counted, reseeded and treated with 8 concentrations of EZH2 inhibitor alone, 8 concentrations of MPC-0767 alone, or the combination of the two (64 total combinations).

NOMO1 (NOMO-1) cells = test: as above; type: cell-based; settings: NOMO1, 72 h
[1] = system: MOLM-13 FLT3-ITD AML cell line; test: Systemic survival xenograft study, MPC-0767 with venetoclax; settings: MPC-0767 100-60 mg/kg QD×24, vs vehicle
Protocol: (§4) A systemic survival xenograft study was performed using the MOLM-13 FLT3-ITD harboring AML cell line.
Before tumor cell inoculation, NOD/SCID mice were pre-treated for 2 days with a daily intraperitoneal injection of 100 mg/kg cyclophosphamide to facilitate engraftment of the human MOLM-13 tumor cells. After the injection of cyclophosphamide, the animals were allowed to recover for 24 hours prior to inoculation with human MOLM-13 tumor cells. Each mouse was then inoculated with 1×10^7 MOLM-13 cells in 100 μL PBS via intravenous tail vein injection. Mice were next randomized into 4 groups of 6. […] Viability and body weight loss were monitored daily.

[2] = system: phospho-S6 in MV-4-11 cells; test: Phospho-S6 by flow cytometry; type: cell-based; settings: MV-4-11, 1 μM, 24 hours
Protocol: To determine whether MPC-0767 can promote the degradation of FLT3-ITD and abolish downstream signaling, MV-4-11 and MOLM-13 cells were treated with vehicle or MPC-0767 (1 μM) for 24 hours. Cells were harvested for flow cytometry to assess cell surface FLT3 protein abundance. In addition, the measurement of a key phosphorylation site of S6 (phospho-S6) was used as a marker for oncogenic FLT3-ITD signaling (Zimmerman et al., Blood. 2013 122(22): 3607-3615). Indeed, in both MV-4-11 and MOLM-13 cells treated with MPC-0767 there was a >65% reduction in cell surface FLT3 (FIGS. 10A and 10B, respectively) and >70% reduction in phospho-S6 (FIGS. 10C and 10D, respectively).

[3] = system: BaF3 cells harboring FLT3-ITD; test: CellTiter-Glo cell viability; type: cell-based, murine; settings: Mus musculus, 72 hours
Protocol: After this time cell viability was determined using CTG and EC50 values determined.
(§1) EC50 values were calculated using equation 1 (as described above).
BaF3 cells require the supplementation of IL-3 to activate the IL-3 receptor for growth. However, in BaF3 cells transfected with FLT3-ITD, cells no longer require IL3 as survival is solely driven by oncogenic FLT3 signaling.

[4] = system: BaF3 cells harboring FLT3-ITD F691L; test: CellTiter-Glo cell viability; type: cell-based, murine; settings: Mus musculus; BaF3 FLT3-ITD-F691L, 72 hours
Protocol: as §1

[5] = system: MOLM-13-R-PKC412 (midostaurin-resistant) cells; test: CellTiter-Glo cell viability; type: cell-based, human
Excerpt: In the clinic, tyrosine kinase inhibitors that target FLT3 initially show positive responses, but patients inevitably relapse due to the development of drug-resistance through various mechanisms, as discussed above.

ME1 (ME-1) cells = test: CellTiter-Glo cell viability (single agent and combination); type: cell-based; settings: ME1, 72 h
FLT3-ITD AML cells = test: CellTiter-Glo viability of AML cell lines and primary AML samples; type: cell-based; settings: FLT3-ITD cells (n=8), 72 hours; read-out: geometric mean EC50 (cell viability)
Protocol: (§2) Exponentially growing cell lines were counted and seeded into 96-well clear, flat-bottomed polystyrene microtiter plates in a final volume of 90 μL per well. For primary AML samples, cells were seeded into 384 well plates at a density of 2×10^4 cells in a final volume of 27 μL per well. To treat cell lines or primary samples 10 μL or 3 μL, respectively, of 10× concentrations of MPC-0767, were then added to the cells to give a final concentration of 10000 nM, 5000 nM, 2500 nM, 1250 nM, 625 nM, 313 nM, 156 nM, 78 nM, 39 and 20 nM. […] Cells were seeded and treated in duplicate. After incubation for three days, cell viability was determined by measuring intracellular ATP levels using the CellTiter-Glo® assay system by adding to each well either 100 μL for 96 well plates, or 30 μL for 384 well plates. Luminescence was detected using a plate reader.
(§3) The effect of drugs on cell viability was calculated by comparing the ATP levels (luminescence counts per second) of cells exposed to test compound with those of cells exposed to vehicle (DMSO) alone. The half-maximal effective concentration (EC50) for each cell line was determined using the R DRC package (R Core Team, 2017). In brief, the dose-response curves were fitted with a four-parameter logistic regression model (LL.4) according to (Eq-1) and the absolute EC50 was estimated using a confidence interval of 0.95.

FLT3 WT AML cells = test: as above; type: cell-based; settings: FLT3 WT cells (n=11), 72 hours; read-out: geometric mean EC50 (cell viability)
Protocol: as §2, §3

[6] = system: MOLM-13 FLT3-ITD AML cell line; test: Systemic survival xenograft study, MPC-0767 with 5′azacitidine; settings: single agents: MPC-0767 75 mg/kg p.o.; 5′azacitidine 2 mg/kg QD×4 i.p.; vs vehicle
Protocol: as §4
Before tumor cell inoculation, NOD/SCID mice were pre-treated for 2 days with a daily intraperitoneal injection of 100 mg/kg cyclophosphamide to facilitate engraftment of the human MOLM-13 tumor cells. After the injection of cyclophosphamide, the animals were allowed to recover for 24 hours prior to inoculation with human MOLM-13 tumor cells. Each mouse was then inoculated with 1×10^7 MOLM-13 cells in 100 μL PBS via intravenous tail vein injection. Mice were next randomized into 4 groups of 6 mice each. […] Viability and body weight loss were monitored daily.

OCIAML3 cells = test: CellTiter-Glo cell viability; type: cell-based; settings: OCIAML3, 72 h
MOLM16 cells = test: CellTiter-Glo cell viability; type: cell-based; settings: MOLM16, 72 h

SMILES: C[C@H](N)C(=O)O[C@@H](C)C(=O)N1CCC(CCn2c(Sc3cc4c(cc3Br)OCO4)nc3c(N)ncnc32)CC1 [MPC-0767]
- viability of KDM6A sgRNA cells vs non-targeting sgRNA (MV-4-11 cells (FLT3-ITD)): conferred resistance to MPC-0767
- pEC50 (NOMO1 (NOMO-1) cells; Homo sapiens, NOMO-1): 5.84
- MPC-0767 Sensitivity (NOMO1 (NOMO-1) cells): Resistant (EC50 values above 1 μM considered resistant)
- increase in median survival [1]: 3.5 days
- reduction in phospho-S6 [2]: > 70%
- pEC50 [3]: 6.30
- pEC50 [4]: 6.41
- pEC50 ([5]; Homo sapiens, MOLM-13-R-PKC412, 72 hours): 6.14
- fold difference in EC50, midostaurin-resistant vs control cells ([5]; MOLM-13-R-PKC412 vs MOLM-13-LUC): less than 1.5 fold
- MPC-0767 Sensitivity (ME1 (ME-1) cells): Resistant (EC50 values above 1 μM considered resistant)
- pEC50 (ME1 (ME-1) cells; ME-1): 5.47
- pEC50 (FLT3-ITD AML cells): 6.24
- pEC50 (FLT3 WT AML cells): 5.82
- increase in median survival [6]: 5.5 days
- pEC50 (OCIAML3 cells; Homo sapiens, OCI-AML-3): 5.74
- MPC-0767 Sensitivity (OCIAML3 cells): Resistant (EC50 values above 1 μM considered resistant)
- pEC50 (MOLM16 cells): 6.44
- MPC-0767 Sensitivity (MOLM16 cells): Sensitive (cell lines having EC50 values below 1 μM were considered to be sensitive)
